By inhibition is commonly meant the change of the read-out against control, counted positive when it falls. One may read the GI50 as the concentration at which growth is held to half of that of the control. High values mean lower sensitivity of the cells, low ones greater sensitivity of the cells.

The subject of experiment [1] is mouse lymphoma cell line L5178Y. Briefly: Growth inhibition of mouse lymphoma cells (L5178Y), 48 h. The class given is cell-based. The note with it: 48 hours; for inhibition at 2 µM: 2 micromolar; for inhibition at 20 µM: 20 micromolar; for inhibition at 10 µM: 10 micromolar, read-out: Inhibition of growth; for inhibition at 50 µM: 50 micromolar. The protocol: Effects of compounds on growth of mouse lymphoma cell line L5178Y, were determined as follows. Cells were grown in Fischer's medium (obtained from Life Technologies, Inc., Gaithersburg, Md.) containing 0.24 grams per liter (g/l) sodium pyruvate, 1.12 g/l surfactant (Pluronic F-68, from BASF Corporation, Parsippany, N.J.), and 10% by volume (10% v/v) heat-inactivated horse serum (obtained from Life Technologies, Inc) at 37° C. To 30 ml aliquots of cell suspension (2×10^4 cells per milliliter (mL)) in exponential growth phase were added test compounds dissolved in dimethylsulfoxide (DMSO) at various concentrations such that the final DMSO concentration in the mixtures was 0.25%. Tubes were gassed with 5% CO2 then incubated on a roller drum apparatus. After 48 hours the cells were treated with 0.1% trypsin (Life Technologies, Inc.,) for 10 minutes and counted in a Coulter Counter equipped with a 140 micrometer (μM) aperture. Percent inhibition of growth was calculated by comparing the number of cells in assays containing test compound with the number of cells in controls lacking the test compound.

A further experiment relates to Leukemia (SR). Briefly: Growth inhibition of human tumor cell lines: Leukemia (SR). The class given is cell-based. The note with it: cell line A = Leukemia (SR), NCI testing. On the procedure:
(§1) Selected compounds were evaluated by the National Cancer Institute, Bethesda, Md. against 60 human tumor cell lines according to procedures described in Principles and Practices of Oncology, volume 3, issue number 10, pp. 1-12. Results of the testing against representative cell lines including the test compound number, and the GI50 values (μM) are set forth in Table 3. The GI50 value is the concentration required to inhibit cell growth by 50% as compared to untreated control cultures.

Experiment [2] relates to Nonsmall cell lung cancer (NCIH522). Briefly: Growth inhibition of human tumor cell lines: Nonsmall cell lung cancer (NCIH522). Format: cell-based. The note with it: NCI-H522, cell line B = Nonsmall cell lung cancer (NCIH522), NCI testing. The protocol:
as §1

Experiment [3] concerns Small cell lung cancer (DMS 114). Briefly: Growth inhibition of human tumor cell lines: Small cell lung cancer (DMS 114). Format: cell-based. The note with it: cell line C = Small cell lung cancer (DMS 114), NCI testing. On the procedure:
as §1

Another experiment concerns Colon cancer (HCT116). Briefly: Growth inhibition of human tumor cell lines: Colon cancer (HCT116). Format: cell-based. The note with it: HCT-116, cell line D = Colon cancer (HCT116), NCI testing. On the procedure: as §1
The test system of a further experiment is CNS cancer (SF539). Briefly: Growth inhibition of human tumor cell lines: CNS cancer (SF539). The class given is cell-based. The note with it: SF-539, cell line E = CNS cancer (SF539), NCI testing. On the procedure:
as §1

For the next experiment, the system named is Melanoma (SKMEL-2). Briefly: Growth inhibition of human tumor cell lines: Melanoma (SKMEL-2). Format: cell-based. The note with it: SK-MEL-2, cell line F = Melanoma (SKMEL-2), NCI testing. The protocol:
as §1

Another experiment has as its system Ovarian cancer (OVCAR8). Briefly: Growth inhibition of human tumor cell lines: Ovarian cancer (OVCAR8). The class given is cell-based. The note with it: OVCAR-8, cell line G = Ovarian cancer (OVCAR8), NCI testing. On the procedure:
as §1

The next experiment relates to Renal cancer (CAKI1). Briefly: Growth inhibition of human tumor cell lines: Renal cancer (CAKI1). Format: cell-based. The note with it: CAKI-1, cell line H = Renal cancer (CAKI1), NCI testing. On the procedure:
as §1

The next experiment has as its system tubulin. Briefly: Inhibition of microtubule assembly. Format: biochemical, calf. The note with it: preincubated 1 h at 37° C. The protocol: Compounds were evaluated for their ability to inhibit tubulin assembly into microtubules by comparing the extent of cold-reversible assembly in the presence of each test compound with controls lacking the test compound. Tubulin was isolated from calf brain tissue by two cycles of assembly/disassembly as described by Vallee, R. B. in Methods in Enzymology, vol. 134, pp. 89-104. Assay mixtures contained 1 mg/ml of purified tubulin in 1 M sodium glutamate, pH 6.6, 1 millimolar (mM) MgCl2, and the test compound, which was added as a solution in DMSO. The final concentration of DMSO in each assay was 2% (v/v). Assay mixtures were preincubated at 37° C. for 1 h, then chilled on ice for 5 min. Microtubule assembly was initiated by addition of guanosine triphosphate (0.1 mM), and incubation at 37° C. Assembly was followed turbidimetrically at 350 nm for 20 minutes (min) using a temperature-controlled cell in a Cary 2200 spectrophotometer. Since microtubules undergo depolymerization at 0° C., assembly was confirmed by measuring the reduction in turbidity following incubation for 30 min at 0° C. The difference in absorbance before and after incubation for 30 min at 0° C. (ΔA350) represents the extent of microtubule assembly. Inhibition of assembly was calculated by subtracting the (ΔA350) values for treatments with test compounds from the (ΔA350) for controls without test compound, and expressing this difference as a percentage of the (ΔA350) value for the control. Results including test compound number, test compound concentration in micromoles per liter (μM) and percent inhibition are set forth in Table 11.

`CCC(C)(NC(=O)c1cncc(Br)c1)C(=O)CCl` (centres unmarked) [Compound 44] registered an inhibition at 2 µM in [1] of 95%. For the same compound, the GI50 in the experiment on Leukemia (SR) was 330 nM; in experiment [2], 350 nM; in experiment [3], 330 nM; in the experiment with Colon cancer (HCT116), 670 nM; in the experiment on CNS cancer (SF539) it was 2210 nM; in the experiment with Melanoma (SKMEL-2) it was 410 nM. Moreover, the GI50 in the experiment with Ovarian cancer (OVCAR8) came to 1960 nM; in the experiment with Renal cancer (CAKI1), 2360 nM. In addition, the “Percent inhibition of microtubule assembly” value (“Percent inhibition” below) with tubulin (50 μM) is 100.0%.

Take `CCC(C)(NC(=O)c1cc(Cl)c(Cl)c(Cl)c1)C(=O)CCl` (centres unmarked) [Compound 33]: testing at 20 µM in experiment [1] gave an inhibition of 94%. The “Percent inhibition” value in the experiment with tubulin (50 μM) amounted to 12.2%.

Take `CCC(C)(NC(=O)c1cc(C)cc(C#N)c1)C(=O)CCl` (centres unmarked) [Compound 23]: the inhibition at 10 µM in [1] came to 95%. Further, the concentration for 50% growth inhibition (GI50) with Leukemia (SR) was found to be 650 nM; in experiment [2], 2050 nM; in experiment [3], 2190 nM; in the experiment with Colon cancer (HCT116), 3280 nM; in the experiment with CNS cancer (SF539), 2550 nM; in the experiment with Melanoma (SKMEL-2), 2560 nM. Further, the concentration for 50% growth inhibition (GI50) in the experiment with Ovarian cancer (OVCAR8) turned out to be 3430 nM; in the experiment on Renal cancer (CAKI1) it was 2810 nM. The “Percent inhibition” value with tubulin (50 μM) was 50.5%.

In turn, `CC(C)(NC(=O)c1cc(Cl)cc(Cl)c1)C(=O)C(Cl)Br` (centres unmarked) [Compound 15] came in with an inhibition at 2 µM in experiment [1] of 90%. Besides, the GI50 stood at 2850 nM in the experiment on Leukemia (SR); 1290 nM in experiment [2]; 6650 nM in experiment [3]; 10400 nM with Colon cancer (HCT116); 10800 nM with CNS cancer (SF539); 16600 nM in the experiment on Melanoma (SKMEL-2). In addition, the figures for the GI50 in the experiment with Ovarian cancer (OVCAR8) and with Renal cancer (CAKI1) were 12100 nM and 10800 nM, respectively. Besides, the “Percent inhibition” value in the experiment on tubulin (50 μM) is reported as 94.6%.

As to `CC(C)(NC(=O)c1cc(Cl)cc(Cl)c1)C(=O)C(Br)Br` [Compound 17], the inhibition at 2 µM in experiment [1] stood at 97%. Besides, the GI50 in the experiment on Leukemia (SR) is 1790 nM; in experiment [2], 1040 nM; in [3], 2090 nM; with Colon cancer (HCT116) it was 3650 nM; with CNS cancer (SF539) it was 2250 nM; in the experiment with Melanoma (SKMEL-2), 2710 nM. The GI50 came out at 3000 nM with Ovarian cancer (OVCAR8) and 2370 nM with Renal cancer (CAKI1). Besides, in the experiment on tubulin (50 μM), the “Percent inhibition” value is 85.9%.

In experiment [1], `CCC(C)(NC(=O)c1cccc(Cl)c1)C(=O)CCl` (centres unmarked) [Compound 35] came in with an inhibition at 20 µM of 95%. Besides, the “Percent inhibition” value with tubulin (50 μM) is recorded as 17.9%.

`CCC(C)(NC(=O)c1cc(Cl)cc(Br)c1)C(=O)C(Br)Br` (centres unmarked) [Compound 41]: the “Percent inhibition” value with tubulin (5 μM) amounted to 76.0%.

As to `CCC(C)(NC(=O)c1cc(C)cc(Cl)c1)C(=O)CCl` (centres unmarked) [Compound 25], the inhibition at 10 µM in experiment [1] was 95%. In addition, the “Percent inhibition” value with tubulin (50 μM) was found to be 30.9%.

As for `CCC(C)(NC(=O)c1cc(Cl)c2ncoc2c1)C(=O)CCl` (centres unmarked) [Compound 56], the inhibition at 10 µM in experiment [1] was determined as 81%.

As for `CCC(C)(NC(=O)c1cc(C)cc(Br)c1)C(=O)CCl` (centres unmarked) [Compound 5], at 2 µM the inhibition in experiment [1] was 91%. The “Percent inhibition” value with tubulin (50 μM) is 88.7%.

Consider `CC(C)(NC(=O)C(Cl)(Cl)Cl)C(=O)C(Br)Br` [Compound 60], for which, in experiment [1], 2 µM produced 98% inhibition.

Compound `CCC(CC)(NC(=O)c1cc(Cl)cc(Cl)c1)C(=O)C(Br)Br` [Compound 12] had an inhibition at 2 µM in [1] of 85%.

In the case of `CC(C)(NC(=O)c1cc(Cl)cc(Cl)c1)C(=O)C(Cl)Cl` [Compound 40], the inhibition at 50 µM in experiment [1] came out at 92%.

In the case of `CCC(C)(NC(=O)c1ccc(C)s1)C(=O)CCl` (centres unmarked) [Compound 48], in experiment [1], at 50 µM the inhibition was 97%.

`CC(C)(NC(=O)c1cc(Cl)nc(Cl)c1)C(=O)C(Br)Br` [Compound 42] registered an inhibition at 2 µM in experiment [1] of 98%.

`CCC(C)(NC(=O)c1cccc(NC(=O)OC)c1)C(=O)CCl` (centres unmarked) [Compound 22]: the inhibition at 10 µM in [1] stood at 96%.

In [1], `CCC(C)(NC(=O)c1ccc(NC(=O)OC)cc1)C(=O)CCl` (centres unmarked) [Compound 1] returned an inhibition at 2 µM of 92%.

Take `CCC(C)(NC(=O)c1cc(Cl)c(C)c(Cl)c1)C(=O)CCl` (centres unmarked) [Compound 32]: the inhibition at 20 µM in experiment [1] stood at 96%.

The compound `CCC(C)(NC(=O)c1ccc(Cl)nc1)C(=O)CCl` (centres unmarked) [Compound 46] displayed an inhibition at 50 µM in [1] of 84%.
